Assays:
[1] = target: T1, recombinant human 17β-HSD1 (Homo sapiens, UniProt P14061); test: Inhibition of recombinant human 17β-HSD1; type: biochemical; settings: inhibitor at 1 μM; 30 nM estrone, 1 mM NADPH, 30 min at RT; read-out: 17β-HDS1 Inhibition % at 1 μM
T1 construct: made in house; host or cells: Sd9 (Sf9) insect cells, baculovirus (Bac to Bac Expression System)
T1 sequence (P14061 1-328): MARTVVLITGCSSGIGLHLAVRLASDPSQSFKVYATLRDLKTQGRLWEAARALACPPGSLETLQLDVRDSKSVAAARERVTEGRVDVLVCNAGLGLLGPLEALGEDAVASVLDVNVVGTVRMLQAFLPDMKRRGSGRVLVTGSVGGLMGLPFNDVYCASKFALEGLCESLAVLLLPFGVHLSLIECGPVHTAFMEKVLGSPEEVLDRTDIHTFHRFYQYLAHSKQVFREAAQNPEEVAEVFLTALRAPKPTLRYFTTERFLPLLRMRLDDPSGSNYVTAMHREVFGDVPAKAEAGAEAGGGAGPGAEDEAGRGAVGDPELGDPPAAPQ
How it was run: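 Microsomal enzyme from baculovirus-infected insect cells (1 μg/ml) incubated 30 min at RT in 20 mM KH2PO4 pH 7.4 with 30 nM ³H-estrone and 1 mM NADPH, inhibitor at 1 μM or 0.1 μM, 1% DMSO. TCA-stopped; estrone/estradiol separated by radio-HPLC; % inhibition = 100 − % conversion.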

[2] = target: T2, recombinant human 17β-HSD2 (Homo sapiens, UniProt P37059); test: Inhibition of recombinant human 17β-HSD2; type: biochemical; settings: inhibitor at 1 μM; 50 nM estradiol, 1 mM NADH, 30 min at RT; read-out: 17β-HSD2 Inhibition % at 1 μM
T2 construct: made in house; host or cells: Sd9 (Sf9) insect cells, baculovirus (Bac to Bac Expression System)
T2 sequence (P37059 1-387): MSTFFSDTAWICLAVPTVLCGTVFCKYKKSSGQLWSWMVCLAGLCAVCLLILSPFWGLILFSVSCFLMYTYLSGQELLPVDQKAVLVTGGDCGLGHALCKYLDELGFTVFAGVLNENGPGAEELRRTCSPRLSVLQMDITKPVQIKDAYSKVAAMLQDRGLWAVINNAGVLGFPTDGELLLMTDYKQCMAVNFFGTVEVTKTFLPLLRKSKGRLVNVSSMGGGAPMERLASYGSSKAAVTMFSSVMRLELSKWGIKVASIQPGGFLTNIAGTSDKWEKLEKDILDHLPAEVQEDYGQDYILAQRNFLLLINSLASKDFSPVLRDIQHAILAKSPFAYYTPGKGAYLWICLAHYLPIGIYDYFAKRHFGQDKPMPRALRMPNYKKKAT
How it was run: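 Membrane extract of baculovirus-expressed enzyme in Sf9 cells (4 μg/ml) incubated in 20 mM KH2PO4 pH 8.5 with 50 nM estradiol (³H-tracer) and 1 mM NADH, 30 min at RT, 1% DMSO, inhibitor at 1 μM or 0.1 μM. TCA-stopped; estradiol-to-estrone conversion by radio-HPLC; % inhibition = 100 − % conversion.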

Row | SMILES | inhibition at 1 µM [1] [%] | inhibition at 1 µM [2] [%]
1 | Cc1cnc(NC(=O)CC[C@@H]2CC(=O)[C@@]3(C)CCC4c5cc(F)c(O)cc5CCC4C23)s1 (stereo partly drawn) [Compound 67, 3-((13S,15R)-2-fluoro-3-hydroxy-13-methyl-17-oxo-7,8,9,11,12,13,14,15,16,17-decahydro-6H-cyclopenta[a]phenanthren-15-yl)-N-(5-methylthiazol-2-yl)propanamide] | 98 | 6
2 | Cc1cnc(NC(=O)CC[C@@H]2CC(=O)[C@@]3(C)CCC4c5cc(O)c(O)cc5CCC4C23)s1 (stereo partly drawn) [Compound 68, 3-((13S,15R)-2,3-dihydroxy-13-methyl-17-oxo-7,8,9,11,12,13,14,15,16,17-decahydro-6H-cyclopenta[a]phenanthren-15-yl)-N-(5-methylthiazol-2-yl)propanamide] | 88 | 3
3 | CC(=O)Oc1cc2c(cc1F)C1CC[C@]3(C)C(=O)C[C@@H](CCC(=O)Nc4ncc(C)s4)C3C1CC2 (stereo partly drawn) [Compound 69, (13S,15R)-2-fluoro-13-methyl-15-(3-((5-methylthiazol-2-yl)amino)-3-oxopropyl)-17-oxo-7,8,9,11,12,13,14,15,16,17-decahydro-6H-cyclopenta[a]phenanthren-3-yl acetate] | 57 | 4
4 | Cc1cnc(NC(=O)CC[C@@H]2CC(=O)[C@@]3(C)CCC4c5cc(Br)c(O)c(F)c5CCC4C23)s1 (stereo partly drawn) [Compound 71, 3-((13S,15R)-2-bromo-4-fluoro-3-hydroxy-13-methyl-17-oxo-7,8,9,11,12,13,14,15,16,17-decahydro-6H-cyclopenta[a]phenanthren-15-yl)-N-(5-methylthiazol-2-yl)propanamide] | 91 | 7
5 | Cc1cnc(NC(=O)CC[C@@H]2CC(=O)[C@@]3(C)CCC4c5cc(F)c(O)c(Br)c5CCC4C23)s1 (stereo partly drawn) [Compound 72, 3-((13S,15R)-4-bromo-2-fluoro-3-hydroxy-13-methyl-17-oxo-7,8,9,11,12,13,14,15,16,17-decahydro-6H-cyclopenta[a]phenanthren-15-yl)-N-(5-methylthiazol-2-yl)propanamide] | 89 | 10
6 | Cc1cnc(NC(=O)CC[C@@H]2CC(=O)[C@@]3(C)CCC4c5cc([N+](=O)[O-])c(O)c(F)c5CCC4C23)s1 (stereo partly drawn) [Compound 73, 3-((13S,15R)-4-fluoro-3-hydroxy-13-methyl-2-nitro-17-oxo-7,8,9,11,12,13,14,15,16,17-decahydro-6H-cyclopenta[a]phenanthren-15-yl)-N-(5-methylthiazol-2-yl)propanamide] | 90 | 2
7 | Cc1cnc(NC(=O)CC[C@@H]2CC(=O)[C@@]3(C)CCC4c5cc([N+](=O)[O-])c(O)c(Cl)c5CCC4C23)s1 (stereo partly drawn) [Compound 75, 3-((13S,15R)-4-chloro-3-hydroxy-13-methyl-2-nitro-17-oxo-7,8,9,11,12,13,14,15,16,17-decahydro-6H-cyclopenta[a]phenanthren-15-yl)-N-(5-methylthiazol-2-yl)propanamide] | 89 | 2
8 | Cc1cnc(NC(=O)CC[C@@H]2CC(=O)[C@@]3(C)CCC4c5cc6ncoc6c(Cl)c5CCC4C23)s1 (stereo partly drawn) [Compound 77, 3-((3R,12aS)-6-chloro-12a-methyl-1-oxo-2,3,3a,3b,4,5,10b,11,12,12a-decahydro-1H-cyclopenta[7,8]phenanthro[3,2-d]oxazol-3-yl)-N-(5-methylthiazol-2-yl)propanamide] | 87 | 0
9 | Cc1cnc(NC(=O)CC[C@@H]2CC(=O)[C@@]3(C)CCC4c5cc6ncoc6c(F)c5CCC4C23)s1 (stereo partly drawn) [Compound 78, 3-((3R,12aS)-6-fluoro-12a-methyl-1-oxo-2,3,3a,3b,4,5,10b,11,12,12a-decahydro-1H-cyclopenta[7,8]phenanthro[3,2-d]oxazol-3-yl)-N-(5-methylthiazol-2-yl)propanamide] | 91 | 1
10 | Cc1cnc(NC(=O)CC[C@@H]2CC(=O)[C@@]3(C)CCC4c5ccc(OS(=O)(=O)C(F)(F)F)cc5CCC4C23)s1 (stereo partly drawn) [Compound 79, (13S,15R)-13-methyl-15-(3-((5-methylthiazol-2-yl)amino)-3-oxopropyl)-17-oxo-7,8,9,11,12,13,14,15,16,17-decahydro-6H-cyclopenta[a]phenanthren-3-yl trifluoromethanesulfonate] | 72 | 0
11 | Cc1cnc(NC(=O)CC[C@@H]2CC(=O)[C@@]3(C)CCC4c5cc([N+](=O)[O-])ccc5CCC4C23)s1 (stereo partly drawn) [Compound 84, 3-((13S,15R)-13-methyl-2-nitro-17-oxo-7,8,9,11,12,13,14,15,16,17-decahydro-6H-cyclopenta[a]phenanthren-15-yl)-N-(5-methylthiazol-2-yl)propanamide] | 93 | 1
12 | Cc1cnc(NC(=O)CC[C@@H]2CC(=O)[C@@]3(C)CCC4c5cccc([N+](=O)[O-])c5CCC4C23)s1 (stereo partly drawn) [Compound 85, 3-((13S,15R)-13-methyl-4-nitro-17-oxo-7,8,9,11,12,13,14,15,16,17-decahydro-6H-cyclopenta[a]phenanthren-15-yl)-N-(5-methylthiazol-2-yl)propanamide] | 93 | 2
13 | Cc1cnc(NC(=O)CC[C@@H]2CC(=O)[C@@]3(C)CCC4c5cc(F)ccc5CCC4C23)s1 (stereo partly drawn) [Compound 86, 3-((13S,15R)-2-fluoro-13-methyl-17-oxo-7,8,9,11,12,13,14,15,16,17-decahydro-6H-cyclopenta[a]phenanthren-15-yl)-N-(5-methylthiazol-2-yl)propanamide] | 92 | 0
14 | Cc1cnc(NC(=O)CC[C@@H]2CC(=O)[C@@]3(C)CCC4c5cc(N)ccc5CCC4C23)s1 (stereo partly drawn) [Compound 87, 3-((13S,15R)-2-amino-13-methyl-17-oxo-7,8,9,11,12,13,14,15,16,17-decahydro-6H-cyclopenta[a]phenanthren-15-yl)-N-(5-methylthiazol-2-yl)propanamide] | 87 | 2
15 | Cc1cnc(NC(=O)CC[C@@H]2CC(=O)[C@@]3(C)CCC4c5cc(O)ccc5CCC4C23)s1 (stereo partly drawn) [Compound 88, 3-((13S,15R)-2-hydroxy-13-methyl-17-oxo-7,8,9,11,12,13,14,15,16,17-decahydro-6H-cyclopenta[a]phenanthren-15-yl)-N-(5-methylthiazol-2-yl)propanamide] | 93 | 1
16 | Cc1cnc(NC(=O)CC[C@@H]2CC(=O)[C@@]3(C)CCC4c5cccc(N)c5CCC4C23)s1 (stereo partly drawn) [Compound 89, 3-((13S,15R)-4-amino-13-methyl-17-oxo-7,8,9,11,12,13,14,15,16,17-decahydro-6H-cyclopenta[a]phenanthren-15-yl)-N-(5-methylthiazol-2-yl)propanamide] | 71 | 0
17 | Cc1cnc(NC(=O)CC[C@@H]2CC(=O)[C@@]3(C)CCC4c5cccc(O)c5CCC4C23)s1 (stereo partly drawn) [Compound 90, 3-((13S,15R)-4-hydroxy-13-methyl-17-oxo-7,8,9,11,12,13,14,15,16,17-decahydro-6H-cyclopenta[a]phenanthren-15-yl)-N-(5-methylthiazol-2-yl)propanamide] | 94 | 0
18 | Cc1cnc(NC(=O)CC[C@@H]2CC(=O)[C@@]3(C)CCC4c5cc(C#N)c(O)cc5CCC4C23)s1 (stereo partly drawn) [Compound 91, 3-((13S,15R)-2-cyano-3-hydroxy-13-methyl-17-oxo-7,8,9,11,12,13,14,15,16,17-decahydro-6H-cyclopenta[a]phenanthren-15-yl)-N-(5-methylthiazol-2-yl)propanamide] | 97 | 1
19 | Cc1cnc(NC(=O)CC[C@@H]2CC(=O)[C@@]3(C)CCC4c5ccc(O)c(C#N)c5CCC4C23)s1 (stereo partly drawn) [Compound 92, 3-((13S,15R)-4-cyano-3-hydroxy-13-methyl-17-oxo-7,8,9,11,12,13,14,15,16,17-decahydro-6H-cyclopenta[a]phenanthren-15-yl)-N-(5-methylthiazol-2-yl)propanamide] | 97 | 0

Reference: patent US10377791B2, “Therapeutically active estratrienthiazole derivatives as inhibitors of 17 B-hydroxysteroid dehydrogenase, type 1” (FORENDO PHARMA LTD, priority 2013, dated 2019)
